Test results from paper PMC8901119 (Chemical Science, 2021).
Several values for one entry are separate records, joined by “and”; a condition that tells them apart may be missing. Equal values may be shown once. Entries after “also recorded” stand apart in the source; their conditions may differ. Starred links: 1 amine or outer side, 2 acyl side, 3 side chain; linkers in the order of their positions; H or OH if unused. Non-standard residues stand in square brackets, D forms with d. Residues, ends and D or L forms follow the SMILES beside them. Ala(7-MeO-coumarin-4-yl) = COc1ccc2c(C[C@H](N)C(=O)O)cc(=O)oc2c1; X1 = C[C@H](NC(=S)[C@H](CCCNC(=N)N)N[*:1])C(=O)[*:2]

Key:
Cts S = target: T1, Cts S (Homo sapiens, UniProt P25774); experiment: Cathepsin S inhibition assay with Z-LR-AMC; format: biochemical; settings: approximate; competitive model
T1 construct: purchased Sigma-Aldrich; host or cells: FreeStyle 293-F cells
Procedure: (§1) Phan et al. Electronic SupplementaryInformation
Cathepsin S Inhibition Assay. For cathepsin S (Cts S, 2 mg/mL, solution; recombinant, expressed in FreeStyle™ 293-F cells, ≥90% pure by SDS-PAGE), various concentrations of the substrate Z- […]
A stock solution of 2 mg/mL enzyme in 45 mM Tris-HCl, pH 8.0, 124 mM NaCl, 2.4 mM KCl, 225 mM imidazole, 3 mM DTT, and 10% glycerol was diluted with assay buffer containing 5 mM DTT. Peptide (inhibitor) stock solutions […]
with the assay buffer. A 20 mM stock solution of the chromogenic substrate Z-LR-AMC (Bachem; […]
assay to ensure reproducibility. […]
progress curve (Figure S23). Similar to the analysis with Cts L, these curves were fit to Michaelis - Menten enzyme kinetic model in Prism 8 (GraphPad Software; La Jolla, CA) using Eq. S1 to determine Vmax and KM (Table S21). 5 Turnover number (k cat) was calculated by dividing Vmax by the enzyme concentration (Table S21).
(§2) Similar analysis was done for Cts V, Cts K, Cts S, and Cts B to evaluate and approximate the inhibitory effects of the thiopeptide RS1A. Initial evaluation of the kinetic parameters were obtained […]
(§3) 24), then the data were further analyzed with the non-linear regression method with a mixed - […]
the mechanism with the parameter α. Further fitting to an appropriate model (e.g. uncompetitive, competitive, or non-competitive model) was performed if needed. […]

Cts B = target: T2, Cts B (Homo sapiens, UniProt P07858); experiment: Cathepsin B inhibition assay with Z-RR-AMC; format: biochemical; settings: approximate; competitive model
T2 construct: cathepsin B (Cts B, ≥1,500 units/mg protein, solution; from human liver); purchased Sigma-Aldrich; host or cells: human liver (tissue-purified)
Procedure: as §1
Cathepsin B Inhibition Assay. For cathepsin B (Cts B, ≥1,500 units/mg protein, solution; from […]
and 5 mM DTT (pH 5.5). A stock solution of enzyme in 50 mM sodium acetate, pH 5.0, with 1 […]
Diluted solution of Cts B was […]
kinetic model in Prism 8 (GraphPad Software; La Jolla, CA) using Eq. S1 to determine Vmax and KM (Table S22). 5 Turnover number (k cat) was calculated by dividing Vmax by the enzyme concentration(Table S22).
as §2, §3
(§4) the mechanism with the parameter α. Further fitting to an appropriate model (e.g. uncompetitive, competitive, or non-competitive model) was performed if needed. The approximate kinetic parameters resulted from best fit models for the RS1A peptide and the corresponding proteases are […]
(§5) Table S24. Approximate Kinetic Parameters for Cts L, V, K, S, and B Inhibition by R S1A Peptide (μHLFR SAμ).
(§6) Protease α (Best Fitted Model) KI (μM) αKI or KI'
(§7) Cts S Very large (Competitive) 53.47 ± 11.42 - Cts B Very large (Competitive) >> 50 -

Cts L [1] = target: T3, Cts L (Homo sapiens, UniProt P07711); experiment: Cathepsin L inhibition assay with Z-FR-AMC; settings: Cts L, mixed inhibition model fit, Z-FR-AMC, pH 5.5, 27 °C
Procedure: The peptide inhibitors were pre-incubated with the appropriate proteases in the assay buffer for 10 min to ensure full interactions prior being added to the fluorogenic substrates. The fluorescence of the reaction was monitored as a function of time at 460 nm with an excitation wavelength of 380 nm by a Tecan M1000 plate reader. Each assay was done in triplicates to ensure reproducibility.
Cathepsin L Inhibition Assay. For cathepsin L (Cts L, ≥ 0.5 units/mg protein, solution; from human liver), various concentrations of the substrate Z-FR-AMC (1 μM, 2 μM, 3 μM, 5 μM, 7
μM, 10 μM, 15 μM, and 20 μM) were reacted with 37.9 nM Cts L in a 96-well plate at 27 °C.
Assay buffer consisted of100 mM sodium acetate, 100 mM NaCl, 1 mM EDTA, and 5 mM DTT
with this KSP1 peptide were conducted in 12.3 mM Na2HPO4, 87.7 mM NaH2PO4, 100 mM NaCl,
5 mM DTT, 1 mM EDTA, pH 6.0 at 27 °C – the buffer condition used for this peptide construct
3 A stock solution of 220 μg/mL enzyme in 20 mM malonate, 1 mM EDTA, 400
mM NaCl, pH 5.5 was diluted with the assay buffer. Peptide (inhibitor) stock solutions were
prepared in a minimal amount of Milli-Q water then diluted to the desired concentrations with the
assay buffer. A 5 mM stock solution of the fluorogenic substrate Z-FR-AMC (Bachem; Torrance, CA, USA) was initially prepared in DMSO and diluted with assay buffer. The diluted solution of
Cts L was incubated in the assay buffer with or without the peptide inhibitor at room temperature
for 10 min. For each 50 μL reaction, 25 μL of this Cts L solution (either with or without the peptide inhibitor) was added to 25 μL diluted Z-FR-AMC substrate to initiate the reaction. The fluorescence of the reaction was monitored as a function of time at 460 nm with an excitation wavelength of 380 nm on the Tecan M1000 plate reader. Three independent trials were performed
for each assay to ensure reproducibility. For analysis, the fluorescence data was converted to rates
of proteolysis in terms of concentration (μM/min) by a conversion factor calculated from a linear
fit of the endpoint fluorescence at complete hydrolysis versus substrate concentration. The initial reaction rate was then calculated by extracting the slope of a linear fit of the first 2 min of the
progress curve (Figures S13-S19). These curves were fit to a Michaelis-Menten enzyme kinetic
Kinetics Analysis of the Peptide Inhibitors of Cathepsin L, V, K, B, and S
For Cts L, from initial evaluation of the kinetic parameters obtained from fitting to Michaelis-
data from Z-FR-AMC inhibition assays with Cts L was thus further fitted to a general Mixed
Inhibition Model in GraphPad Prism version 8.4.3 (GraphPad Software; La Jolla, CA), using
A mixed Inhibition Mechanism for Reversible Inhibitors. Abbreviations: E: enzymes;
S: substrate; I: inhibitor; P: product; EI: enzyme-inhibitor complex; ESI: enzyme-substrate-
inhibitor complex; KI: dissociation constant for the EI complex; αK I (also known as KI'):
dissociation constant for the ESI complex.
This general mixed-inhibition model uses a global fitting in which Vmax, KM, KI, constant α and are
shared. The constant α here determines the degree to which inhibitor binding changes the affinity
of the enzyme for substrate; the value of α is always greater than zero.5, 6 An α = 1 (K I = αKI)
complex (ES); the model then becomes identical to a noncompetitive inhibition model.5, 6 When α
> 1, the inhibitor binds preferentially to the free enzyme (E); if α = ∞, the inhibitor binds almost
exclusively the free enzyme and this model becomes identical to competitive inhibition.5, 6 If 0 <α

Cts V = target: T4, Cts V (Homo sapiens, UniProt O60911); experiment: Cathepsin V inhibition assay with Z-LR-AMC; format: biochemical; settings: pH 5.5, 27 °C, approximate
T4 construct: purchased Sigma-Aldrich; host or cells: FreeStyle 293-F cells
Procedure: as §1
Cathepsin V Inhibition Assay. For cathepsin V (Cts V, 0.38 mg/mL, solution; recombinant, expressed in FreeStyle™ 293-F cells, ≥90% pure by SDS-PAGE), various concentrations of the […]
A stock solution of 0.35 mg/mL enzyme
Three independent trials were
Similar to the analysis with Cts L, these curves
CA) using Eq. S1 to determine Vmax and KM (Table S19). 5 Turnover number (k cat) was calculated by dividing V max by the enzyme concentration (Table S19).
as §2, §3, §4, §5, §6, §7

[2] = Stability of peptides in HepG2 whole cell lysate; format: in vitro ADME; settings: human, 20 μM peptide, 0.05 mg/mL lysate, HPLC
Procedure: Stability of Peptides in HepG2 Whole Cell Lysate
Using the same conditions as the previous Cts L Activity Assay in HepG2 Whole Cell Lysate, 50 μL peptide (either R1A or RS1A; final concentration 20 μM) was incubated in 50 μL HepG2 whole cell lysate (to a final concentration of 0.05 mg/mL) in the assay buffer for different time points.
The all-amide peptide, R 1A, was incubated for t = 0, 5, 10, 15, 20, and 30 minutes. The thioamide peptide, RS1A, was incubated for t = 0, 2, 6, 8, 10, and 24 hours. After incubation for the desired amount of time, 100 μL methanol was added to the mixture and incubated at -20 °C for 10 minutes before spinning down at 13,000 rpm for 10 minutes. Then, 180 μL of each mixture was further diluted with 220 μL Milli-Q water to a total volume of 400 μL before adding 1 μL 0.42 mM coumarin internal standard for HPLC analysis. The coumarin internal standard was used to normalize the amount of intact peptide in each sample. A Phenomenex Luna® Omega 5 µm PS C18 100 Å analytical column was used to analyze all samples using the same gradient of 20-40 % B over 20 minutes (Solvent A: 0.1% TFA in Milli-Q water; Solvent B: 0.1% TFA in acetonitrile).
Representative HPLC spectra (325 nm) at different time points were also shown to confirm the stability of the peptides in HepG2 whole cell lysate (Figure S26 A & B). MALDI MS was used to confirm the mass from each fraction from the HPLC from experiment with the all-amide peptide (R 1A – expected [M+H]+ = 1133.51 m/z) and the thioamide peptide ( RS1A – expected [M+H]+ = 1149.48 m/z). To calculate the percent intact peptide for each sample, the average ratio of intact peptide to internal standard was compared to that ratio at t = 0. For each time point, the experiment

Cts L [3] = target: T3, Cts L; experiment: Cathepsin L activity assay with HepG2 whole cell lysate; format: biochemical; set-up: Cts L activity in human hepatocellular carcinoma HepG2 whole cell lysate; host or cells: HepG2 whole cell lysate; settings: 0.05 mg/mL lysate, 200 μM Ac-FR-AFC, 37 °C, 1 h
Procedure: Cts L activity in human hepatocellular carcinoma HepG2 whole cell lysate (200 μg at 2.5 mg mL^−1; ab166833; Abcam, Cambridge, MA) was evaluated using a fluorometric Cathepsin L Activity Assay Kit (ab65306; Abcam, Cambridge, MA, USA) following the manufacturer's protocols. […] The cell lysate and the peptide inhibitor were incubated at room temperature for 10 min. A total of 2 μL of 10 mM CL substrate Ac-FR-AFC substrate (to a final concentration of 200 μM) was then added to each well, except the Lysate Background Control wells. Different concentrations (56 nM, 560 nM, and 1 μM) of SID 26681509, a known Cts L inhibitor, were used as positive controls. The samples were mixed; the plate was sealed to avoid evaporation and incubated at 37 °C for 1 h. The fluorescence of each sample was measured at 505 nm with an excitation wavelength of 400 nm on the Tecan plate reader. […]
Cts L activity in human hepatocellular carcinoma HepG2 whole cell lysate (200 µg at 2.5 mg/ml; ab166833; Abcam, Cambridge, MA, USA) was evaluated using a fluorometric Cathepsin L Activity Assay Kit (ab65306; Abcam) following the manufacturer’s protocols. […] The fluorescence of each sample was measured […]
fluorescence data shown in Figure 4 in the main text are the average of three replicates. […]

HepG2 whole cell lysate = settings: human, 37 °C, up to 24 hours
[4] = HepG2 whole cell lysate in CL assay buffer; settings: human, 37 °C, up to 30 minutes (R1A); 24 hours (RS1A)
cathepsin B (Cts B) = settings: human, 27 °C, up to 100 min

T3 sequence (P07711 114-333): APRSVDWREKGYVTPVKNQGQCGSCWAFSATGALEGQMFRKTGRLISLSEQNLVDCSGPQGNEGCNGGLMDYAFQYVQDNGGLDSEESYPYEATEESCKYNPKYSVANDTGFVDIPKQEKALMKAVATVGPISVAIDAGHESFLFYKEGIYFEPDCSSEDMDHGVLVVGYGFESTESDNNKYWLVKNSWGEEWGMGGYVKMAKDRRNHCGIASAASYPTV
T1 sequence (P25774 115-331): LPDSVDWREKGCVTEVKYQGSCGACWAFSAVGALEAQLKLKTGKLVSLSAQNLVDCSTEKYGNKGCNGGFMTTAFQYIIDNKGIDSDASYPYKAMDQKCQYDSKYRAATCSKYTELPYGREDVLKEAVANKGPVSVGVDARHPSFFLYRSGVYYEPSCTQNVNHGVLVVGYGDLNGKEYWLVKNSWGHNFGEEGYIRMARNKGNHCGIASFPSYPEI
T4 sequence (O60911 114-334): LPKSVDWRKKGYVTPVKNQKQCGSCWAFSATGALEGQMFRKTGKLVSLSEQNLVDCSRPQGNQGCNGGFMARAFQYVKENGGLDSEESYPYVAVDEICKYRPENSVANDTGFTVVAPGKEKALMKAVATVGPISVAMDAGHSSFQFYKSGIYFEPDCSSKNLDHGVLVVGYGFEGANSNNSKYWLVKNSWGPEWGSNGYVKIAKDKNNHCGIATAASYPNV

COc1ccc2c(C[C@H](NC(=O)[C@H](C)NC(=S)[C@H](CCCNC(=N)N)NC(=O)[C@H](Cc3ccccc3)NC(=O)[C@H](CC(C)C)NC(=O)[C@H](Cc3c[nH]cn3)NC(=O)[C@@H](N)Cc3cc(=O)oc4cc(OC)ccc34)C(=O)O)cc(=O)oc2c1 [RS1A] (H-[Ala(7-MeO-coumarin-4-yl)]HLF[X1][Ala(7-MeO-coumarin-4-yl)]-OH) gave a Ki (Cts S) of 53.5 ± 11.4 µM, a Ki (Cts B) greater than 50 µM and a Ki (Cts L [1]) of 1110 ± 220 nM.
With COc1ccc2c(C[C@H](NC(=O)[C@H](C)NC(=S)[C@H](CCCNC(=N)N)NC(=O)[C@H](Cc3ccccc3)NC(=O)[C@H](CC(C)C)NC(=O)[C@H](Cc3c[nH]cn3)NC(=O)[C@@H](N)Cc3cc(=O)oc4cc(OC)ccc34)C(=O)O)cc(=O)oc2c1 [R^S1A] (H-[Ala(7-MeO-coumarin-4-yl)]HLF[X1][Ala(7-MeO-coumarin-4-yl)]-OH) the Ki (Cts V) was 26.2 ± 8.42 µM, the half-life at 20 μM [2] was 1720 min and the IC50 (Cts L [3]) was 19 µM and 19.3 µM.
For “μHLFRAμ (H-[Ala(7-MeO-coumarin-4-yl)]HLFRA[Ala(7-MeO-coumarin-4-yl)]-OH; SMILES COc1ccc2c(C[C@H](NC(=O)[C@H](C)NC(=O)[C@H](CCCNC(=N)N)NC(=O)[C@H](Cc3ccccc3)NC(=O)[C@H](CC(C)C)NC(=O)[C@H](Cc3c[nH]cn3)NC(=O)[C@@H](N)Cc3cc(=O)oc4cc(OC)ccc34)C(=O)O)cc(=O)oc2c1)”, the fragment found (HepG2 whole cell lysate) was “μHLFR, 5 mins; also recorded: Aμ, 5 mins”, the fragment found [4] was “µHLFR; Aµ, 5 mins” and the cleaved bond (cathepsin B (Cts B)) was “R-A”.
